In patent publication US20170008928A1, “NOVEL PEPTIDES AND PEPTIDE DERIVATIVES AND USES THEREOF” (Novo Nordisk A/S, priority 2015, published 2017):
Read-outs that look alike come from different tables or passages of the source. Starred links: 1 amine or outer side, 2 acyl side, 3 side chain; linkers in the order of their positions; H or OH if unused. Non-standard residues stand in square brackets, D forms with d. Residues, ends and D or L forms follow the SMILES beside them. *: point of attachment. Phe(4-CH2SO3H) = N[C@@H](Cc1ccc(CS(=O)(=O)O)cc1)C(=O)O; sY = N[C@@H](Cc1ccc(OS(=O)(=O)O)cc1)C(=O)O; C18 diacid = O=C(O)CCCCCCCCCCCCCCCCC(=O)*; d(βAsp) = O=C(O)[C@@H](CC(=O)[*:2])N[*:1]; γGlu = O=C(O)[C@H](CCC(=O)[*:2])N[*:1]; Met(O2) = CS(=O)(=O)CC[C@H](N)C(=O)O; NMeF = CN[C@@H](Cc1ccccc1)C(=O)O; dNMeD = CN[C@H](CC(=O)O)C(=O)O; Nle = CCCC[C@H](N)C(=O)O; AEEA = NCCOCCOCC(=O)O

Legend:
[1] = target: T1, human cholecystokinin-1 receptor (CCK-1R) (Homo sapiens, UniProt P32238); test: In vitro potency on CCK-1R, whole cell functional assay (IP1 accumulation, IP-One HTRF); type: cell-based
T1 construct: host or cells: 1321-N1 cells
T1 sequence (P32238 1-428): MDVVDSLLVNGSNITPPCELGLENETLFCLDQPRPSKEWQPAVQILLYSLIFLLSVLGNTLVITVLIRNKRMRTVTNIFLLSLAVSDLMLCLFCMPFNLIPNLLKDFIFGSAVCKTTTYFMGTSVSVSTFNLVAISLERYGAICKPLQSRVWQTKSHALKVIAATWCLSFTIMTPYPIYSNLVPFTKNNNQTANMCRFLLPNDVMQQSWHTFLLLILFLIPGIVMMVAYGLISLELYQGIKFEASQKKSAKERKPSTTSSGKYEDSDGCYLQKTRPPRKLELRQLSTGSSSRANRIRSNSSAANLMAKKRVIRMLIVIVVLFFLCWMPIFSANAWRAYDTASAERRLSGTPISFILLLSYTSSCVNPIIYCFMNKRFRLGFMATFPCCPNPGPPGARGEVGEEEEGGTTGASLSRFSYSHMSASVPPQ

[2] = target: T2, human cholecystokinin-2 receptor (CCK-2R) (Homo sapiens, UniProt P32239); test: In vitro receptor binding to CCK-2R, SPA displacement of [125I]-CCK-8s from plasma membranes
T2 construct: host or cells: 1321-N1 cells (plasma membranes prepared by Evotec AG Hamburg)
T2 sequence (P32239 1-447): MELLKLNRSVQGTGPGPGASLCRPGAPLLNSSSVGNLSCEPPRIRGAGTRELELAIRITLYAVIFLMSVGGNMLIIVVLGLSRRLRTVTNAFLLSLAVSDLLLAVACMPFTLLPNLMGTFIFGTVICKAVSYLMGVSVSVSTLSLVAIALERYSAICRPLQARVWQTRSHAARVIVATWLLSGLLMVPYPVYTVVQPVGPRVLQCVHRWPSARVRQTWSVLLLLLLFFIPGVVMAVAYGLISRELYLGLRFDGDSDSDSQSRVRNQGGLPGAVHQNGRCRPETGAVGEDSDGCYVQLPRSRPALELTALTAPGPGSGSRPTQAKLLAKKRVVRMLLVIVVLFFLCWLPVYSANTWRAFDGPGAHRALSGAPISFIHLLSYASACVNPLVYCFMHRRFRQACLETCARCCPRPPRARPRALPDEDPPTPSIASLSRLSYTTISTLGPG

[3] = target: T1, human cholecystokinin-1 receptor (CCK-1R); test: In vitro receptor binding to CCK-1R, SPA displacement of [125I]-CCK-8s from plasma membranes
Method: The in vitro binding affinity is a measure of the strength of attraction between a receptor and its ligand.
Displacement of radio ligand was measured as reduction in light emission from SPA beads.
The cells used in these assays were 1321-N1 cells stably expressing the CCK-1R or the CCK-2R (Perkin Elmer product numbers ES-530-A and ES-531-A, respectively see www.perkinelmer.com/Catalog/Product/ID/ES-530-A or -ES-531-A, respectively).
The cells were cultured in an incubator (95% RH (relative humidity), 5% (of standard atmospheric pressure) CO2, 37° C.) in cell culture medium (DMEM (Lonza catalogue BE-12-604F/U1), with 10% (v/v) Foetal Calf Serum (FCS, Gibco catalogue 16140-071), 1% (w/w) Sodium pyruvate (Gibco catalogue 11360-039), 500 μg/ml Geneticin® (G418) (Gibco catalogue 10131-027), 25 μg/ml Zeocin™ (Invitrogen catalogue R250-05), 1% (w/w) Pen/Strep (Gibco catalogue 15140-122)).
Plasma membranes were prepared by Evotec AG Hamburg by use of the ParrBomb (#4635, Parr Instrument Company). Cells were lysed with a lysis buffer (50 mM Tris, 2.5 mM EDTA, pH7) with added protease inhibitors (Complete Proteaseinhibitors EDTA-free (#05056489001, Roche), 1 tablet per 50 mL lysis buffer). The membrane fraction was separated by centrifugation. First, the cell lysate was centrifuged at 1000×g for 10 minutes at 4° C. The pellet was discarded and the supernatant was then centrifuged at 100.000×g for 30 minutes at 4° C. The supernatant was discarded and the pellet was re-suspended in 1 ml/5×10^8 cells ice cold membrane buffer (50 mM Tris, 320 mM Sucrose and Complete Proteaseinhibitors EDTA-free (#05056489001, Roche); pH7.4) and homogenised with dounce homogeniser. The protein concentration was determined using the Pierce™ BCA Protein Assay Kit according to kit manual, and the membrane preparation was adjust to the desired protein concentration with membrane buffer and aliquoted into pre-cooled tubes, snap-frozen in liquid nitrogen, and stored at −80° C.
CCK receptor binding assays were performed in 96-well Optiplates (Cat #6005290, PerkinElmer, Waltham, Mass., USA) in a total volume of 200 μl per well. CCK derivatives in 80% DMSO stock solutions of 800 μM were serially diluted […] in assay buffer (50 mM Tris/HCl, 4.5 mM MgCl2, […], 0.02% Tween 20, 0.25% ovalbumin, 0.1% pluronic F-68, pH 7.4) to final assay concentrations ranging from 10^−5 M (ten μM) to 10^−12 M (one pM).
Fifty μl of reference or test compounds were added to the Optiplates (using technical duplicates, i.e. two wells of each sample, one data point being the average of two wells), followed by addition of 150 μl of the mixture of SPA bead, radio ligand, and plasma membrane. The plates were sealed and incubated in the dark at +22° C. for 2 hours on a IKA MTS plate shaker (IKA-Werke D-79219 Staufen) set at 300 rpm and thereafter centrifuged at 1500 rpm for 10 minutes in a Heraeus Multifuge 3s centrifuge. SPA bead light emission was measured in a TopCount NXT (PerkinElmer) for 2 min/well after a delay of 60 min.
As a measure of compound affinity, calculations were performed in order to determine the half maximal inhibitory concentration (the IC50 value).
The data from the TopCounter were given as counts per minute (CPM). The CPM was plotted as a function of the concentration of compound. Dose-response curves were obtained, and IC50 values were calculated, by a nonlinear three-parameter logistic equation (log(agonist) vs response) with hillslope=−1, and shared top and bottom using the software programme GraphPad Prism v 6.0 (Graph Pad software, La Jolla, Calif., USA). The highest dose tested was 10^−5 M (1×10^7 pM).
The preference of a specific compound for the CCK-1 receptor, or the CCK-1R selectivity, may be defined as IC50 (CCK-2R)/IC50 (CCK-1R).
A minimum of three biological replicates was measured for each test compound on separate assay plates.

[4] = target: T2, human cholecystokinin-2 receptor (CCK-2R); test: In vitro potency on CCK-2R, whole cell functional assay (IP1 accumulation, IP-One HTRF); type: cell-based
[5] = displacement of [125I]-CCK-8s, plasma membranes of 1321-N1 cells expressing CCK-2R, highest dose tested 1×10^7 pM, read-out: IC50 (CCK-2R)
[6] = displacement of [125I]-CCK-8s, plasma membranes of 1321-N1 cells expressing CCK-1R, read-out: IC50 (CCK-1R)
[7] = 1321-N1 cells stably expressing CCK-2R, IP1 accumulation, highest dose tested 1×10^6 pM, read-out: EC50 (CCK-2R)

CCCC[C@H](NC(=O)[C@H](Cc1ccc(CS(=O)(=O)O)cc1)NC(=O)[C@H](CC(=O)O)NC(=O)COCCOCCNC(=O)[C@H](CCCCN)NC(=O)COCCOCCNC(=O)COCCOCCNC(=O)CC[C@H](NC(=O)CCCCCCCCCCCCCCCCC(=O)O)C(=O)O)C(=O)NCC(=O)N[C@@H](Cc1c[nH]c2ccccc12)C(=O)N[C@@H](CCCC)C(=O)N(C)[C@H](CC(=O)O)C(=O)N(C)[C@@H](Cc1ccccc1)C(N)=O [Example 19, 2-[2-[2-[[2-[2-[2-[[(4S)-4-Carboxy-4-(17-carboxyheptadecanoylamino)butanoyl]amino]ethoxy]ethoxy]acetyl]amino]ethoxy]ethoxy]acetyl-Lys-2-[2-(2-aminoethoxy)ethoxy]acetyl-Asp-Phe(4-sulfomethyl)-Nle-Gly-Trp-Nle-DMeAsp-MePhe-amide] ({C18 diacid-γGlu-AEEA-AEEA}-K[AEEA]D[Phe(4-CH2SO3H)][Nle]GW[Nle][dNMeD][NMeF]-NH2)
EC50 [1]: 0.21 nM

CCCC[C@H](NC(=O)[C@H](Cc1ccc(CS(=O)(=O)O)cc1)NC(=O)C[C@@H](NC(=O)COCCOCCNC(=O)COCCOCCNC(=O)CC[C@H](NC(=O)CCCCCCCCCCCCCCCCC(=O)O)C(=O)O)C(=O)O)C(=O)NCC(=O)N[C@@H](Cc1c[nH]c2ccccc12)C(=O)N[C@@H](CCCC)C(=O)N(C)[C@H](CC(=O)O)C(=O)N(C)[C@@H](Cc1ccccc1)C(N)=O [Example 27, 2-[2-[2-[[2-[2-[2-[[(4S)-4-Carboxy-4-(17-carboxyheptadecanoylamino)butanoyl]amino]ethoxy]ethoxy]acetyl]amino]ethoxy]ethoxy]acetyl-DbAsp-Phe(4-sulfomethyl)-Nle-Gly-Trp-Nle-DMeAsp-MePhe-amide] ({C18 diacid-γGlu-AEEA-AEEA-d(βAsp)}-[Phe(4-CH2SO3H)][Nle]GW[Nle][dNMeD][NMeF]-NH2)
IC50 [2, 5]: > 10000 nM | IC50 [3, 6]: 0.13 nM | EC50 [4, 7]: > 1000 nM

CC(C)C[C@H](NC(=O)[C@H](Cc1ccc(OS(=O)(=O)O)cc1)NC(=O)[C@H](CC(=O)O)NC(=O)COCCOCCNC(=O)COCCOCCNC(=O)CC[C@H](NC(=O)CCCCCCCCCCCCCCCCC(=O)O)C(=O)O)C(=O)NCC(=O)N[C@@H](Cc1c[nH]c2ccccc12)C(=O)N[C@@H](C)C(=O)N(C)[C@H](CC(=O)O)C(=O)N(C)[C@@H](Cc1ccccc1)C(N)=O [Example 40, 2-[2-[2-[[2-[2-[2-[[(4S)-4-Carboxy-4-(17-carboxyheptadecanoylamino)butanoyl]amino]ethoxy]ethoxy]acetyl]amino]ethoxy]ethoxy]acetyl-Asp-sTyr-Leu-Gly-Trp-Ala-DMeAsp-MePhe-amide] ({C18 diacid-γGlu-AEEA-AEEA}-D[sY]LGWA[dNMeD][NMeF]-NH2)
IC50 [2]: > 10000 nM | IC50 [3]: 0.65 nM | EC50 [4]: 880 nM

CC(C)C[C@H](NC(=O)[C@H](Cc1ccc(OS(=O)(=O)O)cc1)NC(=O)[C@@H](N)CC(=O)O)C(=O)NCC(=O)N[C@@H](Cc1c[nH]c2ccccc12)C(=O)N[C@@H](CCC(N)=O)C(=O)N(C)[C@H](CC(=O)O)C(=O)N(C)[C@@H](Cc1ccccc1)C(N)=O [Example 62, Asp-sTyr-Leu-Gly-Trp-Gln-DMeAsp-MePhe-amide] (H-D[sY]LGWQ[dNMeD][NMeF]-NH2)
IC50 [2]: > 10000 nM | IC50 [3]: 0.075 nM | EC50 [4]: > 1000 nM

CC(C)C[C@H](NC(=O)[C@H](Cc1ccc(OS(=O)(=O)O)cc1)NC(=O)[C@@H](N)CC(=O)O)C(=O)NCC(=O)N[C@@H](Cc1c[nH]c2ccccc12)C(=O)N[C@@H](CCS(C)(=O)=O)C(=O)N(C)[C@H](CC(=O)O)C(=O)N(C)[C@@H](Cc1ccccc1)C(N)=O [Example 63, Asp-sTyr-Leu-Gly-Trp-Met(O2)-DMeAsp-MePhe-amide] (H-D[sY]LGW[Met(O2)][dNMeD][NMeF]-NH2)
IC50 [2]: > 10000 nM | IC50 [3]: 0.54 nM | EC50 [4, 7]: > 1000 nM

CC(C)C[C@H](NC(=O)[C@H](Cc1ccc(OS(=O)(=O)O)cc1)NC(=O)[C@@H](N)CC(=O)O)C(=O)NCC(=O)N[C@@H](Cc1c[nH]c2ccccc12)C(=O)N[C@H](C(=O)N(C)[C@H](CC(=O)O)C(=O)N(C)[C@@H](Cc1ccccc1)C(N)=O)C(C)C [Example 65, Asp-sTyr-Leu-Gly-Trp-Val-DMeAsp-MePhe-amide] (H-D[sY]LGWV[dNMeD][NMeF]-NH2)
IC50 [2]: > 10000 nM | IC50 [3]: 0.62 nM | EC50 [4]: > 1000 nM

CCCC[C@H](NC(=O)[C@H](Cc1c[nH]c2ccccc12)NC(=O)CNC(=O)[C@H](CCCNC(=N)N)NC(=O)[C@H](Cc1ccc(OS(=O)(=O)O)cc1)NC(=O)[C@@H](N)CC(=O)O)C(=O)N(C)[C@H](CC(=O)O)C(=O)N(C)[C@@H](Cc1ccccc1)C(N)=O [Example 68, Asp-sTyr-Arg-Gly-Trp-Nle-DMeAsp-MePhe-amide] (H-D[sY]RGW[Nle][dNMeD][NMeF]-NH2)
EC50 ([1]; 1321-N1 cells stably expressing CCK-1R, IP1 accumulation, average of min. three replicates, read-out: EC50 (CCK-1R)): 0.21 nM

CCCC[C@H](NC(=O)[C@H](Cc1c[nH]c2ccccc12)NC(=O)CNC(=O)[C@H](CC(C)C)NC(=O)[C@H](Cc1ccc(OS(=O)(=O)O)cc1)NC(=O)[C@@H](N)CCC(=O)O)C(=O)N(C)[C@H](CC(=O)O)C(=O)N[C@@H](Cc1ccccc1)C(N)=O [Example 90, Glu-sTyr-Leu-Gly-Trp-Nle-DMeAsp-Phe-amide] (H-E[sY]LGW[Nle][dNMeD]F-NH2)
IC50 [2, 5]: > 10000 nM | IC50 [3, 6]: 0.029 nM | EC50 [4, 7]: > 1000 nM
